Entries after “also recorded” stand apart in the source; their conditions may differ. Where two headings read alike, the source gives them in different places. Where a SMILES comes first, the peptide text is derived from it. [ ]: non-standard residue; d: D form. The star is where a group is joined. Sta = CC(C)C[C@H](N)[C@@H](O)CC(=O)O; Isovaleryl = CC(C)CC(=O)*
Legend:
[1] = tested on: urinary protease activity at neutral pH (IGFBP-1 proteolysis); test: Effect of protease inhibitors, divalent cations and peptides on urinary protease activity at neutral pH (radioiodinated npIGFBP-1, SDS-PAGE, autoradiography); format: biochemical, human; conditions: for effect on proteolysis in urine: not shown; for effect of peptides on IGFBP-1 proteolysis: increasing concentrations pre-incubated with npIGFBP-1 30 min 22 C, then 0.5 μl urine 2 h 37 C (FIG. 8A)
Experimental: A: Effect of 100 μM pepstatin A, 10 μM E64, 2.5 mM leupeptin, 10 mM PMSF, 100 μM aprotinin, 2.5 mM kallikrein inhibitor and benzamidine (mM) and chymostatin (μM). Molecular mass markers are indicated by the arrows. B: Densitometry measurements of intact IGFBP-1. The results are the mean±SEM, pooled from 6-8 experiments. […] The mean effect of urine pooled from all the experiments is shown in the open bar. *, P<0.05; ** P<0.01 (paired t-test);
(§1) Urine, 0.5 μl, was added and the incubation continued for 2 h at 37 C. The fragments were separated by 14% SDS-PAGE and detected by autoradiography. Molecular mass markers are indicated by the arrows. B: Biotinylated recombinant pIGFBP-1 was bound to streptavidin coated plates and then incubated without (open squares) or with 100 ng IGF-I (closed circles) or des(1-3)IGF-I (open circles). Wells were then incubated with increasing concentration of partially purified azurocidin at […] for 2-h at 37 C. After acidification of all wells, including controls, with 1 M HCl to dissociate bound peptides, radioiodinated IGF-I was added for 2 h at 22 C, unbound tracer was removed by washing, and the bound counts determined;
IGFBP-1 was radioiodinated with ^125I using the chloramine T method. After incubation without and with protease in phosphate buffered saline, pH 7 at 37 C, fragments were separated on 14% non-reducing SDS-PAGE, the gel dried, and visualized by autoradiography.

[2] = tested on: azurocidin-dependent protease activity; test: Azurocidin-dependent protease activity on plate-bound biotinylated pIGFBP-1 with pre-bound peptides; format: biochemical, human; conditions: 100 ng peptide on plate-bound pIGFBP-1, partially purified azurocidin, 2 h, 37 C (FIG. 8B)
Experimental: as §1
(§2) IGFBP-1 was biotinylated with sulfo-NHS-LC-LC-biotin and bound to streptavidin coated plates, then incubated without and with protease in phosphate buffered saline, pH 7 at 37 C. After washing, IGF-binding fragments were determined by incubation with radioiodinated IGF-I for 2 h at 22 C. Unbound tracer was removed by washing, and the bound counts determined.

[3] = tested on: acid-activated IGFBP-1 protease activity in human urine; test: Effect of pepstatin on urinary IGFBP-1 protease activity at pH 2 (streptavidin plate, IGF-II binding); format: biochemical; conditions: pepstatin A 10 μM, pH 2, 5 μl urine, 2 h, 37 C
Experimental: (§3) A-D: Radioiodinated recombinant npIGFBP-1 was subjected to 14% SDS-PAGEalone (*) or after proteolysis for 2 h at 37 C with 0.5 μl urine or 0.25 μl eluate, and the fragments detected by autoradiography. Molecular mass markers are indicated by the arrows. A: pH-dependence of urinary IGFBP-1 protease activity. B: Urine, flowthrough (FT) from the heparin affinity column, and eluate at pH 2 and 7. C: pHdependence of eluate from heparin affinity chromatography. D: Acid-activated protease activity is destroyed by neutralization. Radioiodinated pIGFBP-1 was incubated without (*) and with 0.5 μl urine for 2 h at 37 C at pH 2. Prior to incubation the urine was either untreated (lane a), adjusted to pH 2 for 15 min (lane B) or adjusted to pH 2 for 15 min and then to pH 7 for a further 15 min (lane C). E: Effect of pepstatin. […] The wells were washed, incubated with radioiodinated IGF-II for 2 h at 22 C, washed, and the bound counts detected;
as §2

[4] = tested on: neutral IGFBP-1 protease activity in human urine; test: Effect of pepstatin on urinary IGFBP-1 protease activity at pH 7 (streptavidin plate, IGF-II binding); format: biochemical; conditions: pepstatin A 10 μM, pH 7, 5 μl urine, 2 h, 37 C
Experimental: as §3, §2

[5] = tested on: MCF-7 human breast cancer cells; test: 3H-Thymidine incorporation; format: cell-based; conditions: IGF-II 10 ng/ml, 24 h, serum-free; 6 experiments
Experimental: Cell studies. MCF-7 human breast cancer cells were maintained in MEM alpha ribonucleic acid-free medium supplemented with 10% foetal bovine serum, 50 Unit/ml penicillin sodium, 50 μg/ml streptomycin sulfate and 2 mM L-glutamine at 37C in 5% CO2 humidified environment.
3H-Thymidine incorporation: Experiments were carried out in 48-well plates, at 70% confluence. After a 20-h incubation in serum-free medium supplemented with 0.1% BSA, the experimental conditions were added for a further 24 h, with ^3H-thymidine (1 μCi/ml) added for the last 4 h. Cells were then washed with ice-cold 0.9% NaCl three times and incubated with ice-cold 5% TCA for 15 min at 22 C. The fixed nucleotides were solubilized in 0.1M NaOH at 22 C and subjected to liquid scintillation counting.
Statistical analyses. The effect of IGF-II and IGFBP-1 in muscle cell culture was analyzed by two-way ANOVA. Where significant differences were observed, comparisons were made using the Tukey test. In the study using MCF-7 breast cancer cells the Wolcoxon Matched Pairs test was used. Statistical significance was set at P<0.05.

[6] = tested on: primary human skeletal myotubes; test: 2-Deoxyglucose transport (glucose uptake); format: cell-based; conditions: IGF-II 10 ng/ml (submaximal), 90 min
Experimental: Primary human skeletal myotubes were incubated under serum-free conditions for 24 h. Glucose uptake was determined as described in the Methods. The results are the mean±SEM of four experiments using cells from different individuals each with 3 replicates; and are expressed as the percentage of uptake in the absence of IGF-II or IGFBP-1 for each. The effect of IGF-II is shown in the hatched bars. The effect of pIGFBP-1 on stimulation of glucose uptake by 10 ng/ml IGF-II was analyzed by 2-way ANOVA for each of the 20 ng/ml and 80 ng/ml concentrations; *, P<0.01, **, P<0.001, compared to no IGF-II; ††, P<0.001, compared to no IGFBP-1 or intact IGFBP-1. […]
2-Deoxyglucose transport: Glucose uptake was performed as previously described for primary human muscle cells (Bouzakri et al, Diabetologia, 47, 1314-1323, 2004). […] Cells were then washed four times with pre-warmed buffer (150 mmol/l NaCl, […] KCl, 1.2 mmol/l MgSO4, 1.2 mmol/l CaCL2, 2.5 mmol/l NaH2PO4, 10 mmol/l HEPES, pH 7.4) and glucose uptake was measured for 15 min using [3H]2-deoxyglucose (50 μmol/l, 14,800 Bq/well). Results were expressed as the percentage of glucose uptake in the absence of IGF-II or IGFBP-1.
Statistical analyses. The effect of IGF-II and IGFBP-1 in muscle cell culture was analyzed by two-way ANOVA. […]

[7] = 10 mM cation, pH 7, 0.5 μL urine, 2 h, 37 C

[Ca+2].[Cl-].[Cl-] [CaCl2]
effect of divalent metal cations on proteolysis (densitometry of intact IGFBP-1) [1, 7]: significant promoting effect

[Cl][Cu][Cl] [CuCl2]
effect of divalent metal cations on proteolysis (densitometry of intact IGFBP-1) [1, 7]: inhibited

cyclohexylacetyl-Phe-Arg-Ser-Val-Gln [kallikrein inhibitor]
effect on protease activity in urine ([1]; 100 μM, pH 7, 0.5 μL urine, 2 h, 37 C): inhibited

Cc1ccc(S(=O)(=O)N[C@@H](CCCCN)C(=O)CCl)cc1 [TLCK]
effect on proteolysis in urine ([1]; concentration not given): did not

[Cl][Ni][Cl] [NiCl2]
effect of divalent metal cations on proteolysis (densitometry of intact IGFBP-1) [1, 7]: inhibited

c1cnc2c(c1)ccc1cccnc12 [1,10-phenothroline]
effect on the degree of IGFBP-1 degradation ([1]; data not shown): no effect

IGF-I: recombinant human insulin-like growth factor I
effect of peptides on IGFBP-1 proteolysis [1]: Partial inhibition

O=S(=O)(F)Cc1ccccc1 [PMSF]
effect on protease activity in urine ([1]; 10 mM, pH 7, 0.5 μL urine, 2 h, 37 C): inhibited

[Cl-].[Cl-].[Co+2] [CoCl2]
effect of divalent metal cations on proteolysis (densitometry of intact IGFBP-1) ([1]; pH 7): inhibited

Cc1ccc(S(=O)(=O)N[C@@H](Cc2ccccc2)C(=O)CCl)cc1 [TPCK]
effect on proteolysis in urine ([1]; 1 mM): inhibited

des(1-3)-IGF-I: truncated IGF-I from GroPep
effect of peptide on IGFBP-1 proteolysis [2]: no effect

aprotinin
effect of aprotinin on protease activity (IGFBP-1 proteolysis) ([1]; 100 μM aprotinin (FIG. 7A), pH 7, different experiments): either without effect, or even promoted protease activity; also recorded: increasing IGFBP-1 proteolysis

CC(C)C[C@H](NC(=O)[C@@H](NC(=O)N[C@@H](Cc1ccccc1)C(=O)O)[C@@H]1CCN=C(N)N1)C(=O)N[C@H](C=O)Cc1ccccc1 [chumostatin]
effect on protease activity in urine ([1]; 10 μM, pH 7, 0.5 μL urine, 2 h, 37 C): inhibited

CC(C)CC(=O)N[C@H](C(=O)N[C@H](C(=O)N[C@@H](CC(C)C)[C@@H](O)CC(=O)N[C@@H](C)C(=O)N[C@@H](CC(C)C)[C@@H](O)CC(=O)O)C(C)C)C(C)C [pepstatin, pepstatin A] (Isovaleryl-VV[Sta]A[Sta]-OH)
effect on acid-activated urinary IGFBP-1 protease activity [3]: inhibits | effect on neutral urinary IGFBP-1 protease activity [4]: not the neutral activity

O=C(O)CN(CCN(CC(=O)O)CC(=O)O)CC(=O)O [EDTA]
effect on the degree of IGFBP-1 degradation [1]: no effect

O=C(O)CN(CCOCCOCCN(CC(=O)O)CC(=O)O)CC(=O)O [EGTA]
effect on the degree of IGFBP-1 degradation ([1]; data not shown): no effect

insulin
effect of peptides on IGFBP-1 proteolysis [1]: no effect

IGF-II: human insulin-like growth factor II
stimulation of 3H-thymidine incorporation [5]: 2 fold | effect of peptides on IGFBP-1 proteolysis [1]: Partial inhibition | stimulation of glucose uptake [6]: more than 2 fold
